From US10100079B2, “Progesterone-cationic lipid hybrid as anticancer agent and the process of synthesis thereof” (Council of Scientific & Industrial Research, priority 2016, dated 2018)

Key:
[1] = tested on: T47D; assay: MTT cytotoxicity assay, T47D; type: cell-based; details: Homo sapiens, MTT, 48 h continuous treatment, read-out: IC50 T47D
Method: (§1) All cells were grown into mycoplasma free condition. […] All cells were grown up to 75-85% confluency after which cells were trypsinized, counted and seeded, in 96-well plates for cell viability studies, 6-well plates for apoptosis studies, 60 mm dish for cell cycle studies and in 25 cm^2 or 75 cm^2 tissue culture flasks for Western blot studies. The primary stock of the cationic progesterone molecules were made in cell culture grade DMSO and from that secondary stock was prepared by serial dilution with cell culture grade DMSO. The final working concentrations were prepared by diluting the secondary stock in cell culture media keeping the DMSO concentration in working solution below 0.2% with respect to cell culture medium. […] For this assay, 12-18 h before treatment cells were plated in 96-well plate at 5000 cells/well density. […] After completion of the treatment, 10 μL of MTT solution (5 mg/mL) was added in each well and incubated for 4 h. Then the media was removed carefully, and the reduced MTT was dissolved in 1:1 (v/v) DMSO/Methanol and absorbance was measured using multimode reader (Synergy H1, BioTek). Results were represented as percentage of viability={[A550(treated cells)−background]/[A550(untreated cells)−background]}×100. The result was summarized and provided as IC50 table in Table 1.

[2] = tested on: MCF7; assay: MTT cytotoxicity assay, MCF7; type: cell-based; details: Homo sapiens, MCF7; MTT, 48 h continuous treatment; read-out: IC50 MCF7
Method: as §1

[3] = tested on: OVCAR-3; assay: MTT cytotoxicity assay, OVCAR-3; type: cell-based; details: Homo sapiens, OVCAR-3; MTT, 48 h continuous treatment; read-out: IC50 OVCAR-3
Method: as §1

[4] = tested on: B16F10; assay: MTT cytotoxicity assay, B16F10; type: cell-based, murine; details: Mus musculus, B16-F10; MTT, 48 h continuous treatment; read-out: IC50 B16F10
Method: as §1

[5] = tested on: MDA-MB-231; assay: MTT cytotoxicity assay, MDA-MB-231; type: cell-based, human; details: Homo sapiens, MDA-MB-231; MTT, 48 h continuous treatment; read-out: IC50 MDA-MB-231
Method: as §1

[6] = tested on: NIH-3T3; assay: MTT cytotoxicity assay, NIH-3T3; type: cell-based, murine; details: Mus musculus, NIH3T3; MTT, 48 h continuous treatment, non-cancer cell; read-out: IC50 NIH-3T3
Method: as §1

[7] = tested on: CHO; assay: MTT cytotoxicity assay, CHO; type: cell-based, Chinese hamster; details: Cricetulus griseus, MTT, 48 h continuous treatment, non-cancer cell, read-out: IC50 CHO
Method: as §1

[8] = tested on: COS-1; assay: MTT cytotoxicity assay, COS-1; type: cell-based; details: Chlorocebus aethiops, COS-1; MTT, 48 h continuous treatment, non-cancer cell; read-out: IC50 COS-1
Method: as §1

[9] = tested on: cancer cells T47D, OVCAR-3, MDA-MB-231, MCF-7 and B16F10; assay: MTT viability, all tested cancer cells (combination treatment study, FIG. 1A); type: cell-based; details: 48 h, 2.5 μM-40 μM
Method: FIG. 1A: The viability studies of cancer cells T47D, OVCAR-3, MDA-MB-231, MCF-7 and B16F10 after 48 h of continuous treatment with compound 1 (10 μM), 10C [cationic lipid control molecule not containing progesterone moiety]
(§2) Cytotoxicity assay of the different compounds were carried out by using 3-(4,5-dimethylthiazol-2-yl)-2,5-diphenyltetrazolium bromide (MTT). For this assay, 12-18 h before treatment cells were plated in 96-well plate at 5000 cells/well density. After incubation cells were treated continuously for 48 h with respective compounds at different concentration (2.5 μM-40 μM). After completion of the treatment, 10 μL of MTT solution (5 mg/mL) was added in each well and incubated for 4 h. Then the media was removed carefully, and the reduced MTT was dissolved in 1:1 (v/v) DMSO/Methanol and absorbance was measured using multimode reader (Synergy H1, BioTek). Results were represented as percentage of viability={[A550(treated cells)−background]/[A550(untreated cells)−background]}×100. The result was summarized and provided as IC50 table in Table 1.
(§3) For combination treatment effect, cells were plated in 96 well plates at 5000 cells/well. […] Following 48 h of treatment cell viability was measured following above mentioned MTT study.

[10] = tested on: non-cancer cells CHO, COS-1 and NIH-3T3; assay: MTT viability, tested non-cancer cells (combination treatment study, FIG. 1B); type: cell-based; details: 48 h, 2.5 μM-40 μM
Method: FIG. 1B: The viability studies of non-cancer cells CHO, COS-1 and NIIH-3T3 after 48 h of continuous treatment with compound 1 (10 μM), 10C [cationic lipid control molecule not containing progesterone moiety]
as §2, §3

CCCCCC[N+](C)(CCCCCC)CCNC(=O)CCC(=O)O[C@@H](C)[C@H]1CCC2C3CCC4=CC(=O)CC[C@]4(C)C3CC[C@@]21C (stereo partly drawn) [Compound 6a, N-(2-(4-((1S)-1-((10R,13S,17S)-10,13-dimethyl-3-oxo-2,3,6,7,8,9,10,11,12,13,14,15,16,17-tetradecahydro-1H-cyclopenta[a]phenanthren-17-yl)ethoxy)-4-oxobutanamido)ethyl)-N-hexyl-N-methylhexan-1-aminium chloride]
IC50 [1]: 7.43 ± 0.76 µM | IC50 [2]: > 15 µM | IC50 [3]: 13.9 ± 0.53 µM | IC50 [4]: > 15 µM | IC50 [5]: 5.78 ± 0.38 µM | IC50 [6]: > 20 µM | IC50 [7]: 17.9 ± 0.56 µM | IC50 [8]: > 20 µM

CCCCCCCC[N+](C)(CCCCCCCC)CCNC(=O)CCC(=O)O[C@@H](C)[C@H]1CCC2C3CCC4=CC(=O)CC[C@]4(C)C3CC[C@@]21C.[Cl-] (stereo partly drawn) [Compound 6b, N-(2-(4-((1S)-1-((10R,13S,17S)-10,13-dimethyl-3-oxo-2,3,6,7,8,9,10,11,12,13,14,15,16,17-tetradecahydro-1H-cyclopenta[a]phenanthren-17-yl)ethoxy)-4-oxobutanamido)ethyl)-N-methyl-N-octyloctan-1-aminium chloride]
IC50 [1]: 4.07 ± 0.23 µM | IC50 [2]: 8.28 ± 0.12 µM | IC50 [3]: 11.9 ± 0.45 µM | IC50 [4]: 9.95 ± 0.32 µM | IC50 [5]: 8.56 ± 0.52 µM | IC50 [6]: > 20 µM | IC50 [7]: 17 ± 0.41 µM | IC50 [8]: > 20 µM | cell killing in all tested cancer cells [9]: significant amount of cell killing | toxicity towards tested non-cancer cells [10]: largely non-toxic

CCCCCCCCCCCC[N+](C)(CCCCCCCCCCCC)CCNC(=O)CCC(=O)O[C@@H](C)[C@H]1CCC2C3CCC4=CC(=O)CC[C@]4(C)C3CC[C@@]21C.[Cl-] (stereo partly drawn) [Compound 6d, N-(2-(4-((1S)-1-((10R,13S,17S)-10,13-dimethyl-3-oxo-2,3,6,7,8,9,10,11,12,13,14,15,16,17-tetradecahydro-1H-cyclopenta[a]phenanthren-17-yl)ethoxy)-4-oxobutanamido)ethyl)-N-dodecyl-N-methyldodecan-1-aminium chloride]
IC50 [1]: 12.8 ± 0.43 µM | IC50 [2]: 7.04 ± 0.28 µM | IC50 [3]: 6.83 ± 0.13 µM | IC50 [4]: 9.54 ± 0.18 µM | IC50 [5]: 6.36 ± 0.19 µM | IC50 [6]: > 20 µM | IC50 [7]: 17.5 ± 0.18 µM | IC50 [8]: > 20 µM | cell killing in all tested cancer cells [9]: significant amount of cell killing | toxicity towards tested non-cancer cells [10]: largely non-toxic

CCCCCCCCCCCCCC[N+](C)(CCCCCCCCCCCCCC)CCNC(=O)CCC(=O)O[C@@H](C)[C@H]1CCC2C3CCC4=CC(=O)CC[C@]4(C)C3CC[C@@]21C (stereo partly drawn) [Compound 6e, N-(2-(4-((1S)-1-((10R,13S,17S)-10,13-dimethyl-3-oxo-2,3,6,7,8,9,10,11,12,13,14,15,16,17-tetradecahydro-1H-cyclopenta[a]phenanthren-17-yl)ethoxy)-4-oxobutanamido)ethyl)-N-methyl-N-tetradecyltetradecan-1-aminium chloride]
IC50 [1]: > 15 µM | IC50 [2]: > 15 µM | IC50 [3]: > 15 µM | IC50 [4]: > 15 µM | IC50 [5]: > 15 µM | IC50 [6]: > 20 µM | IC50 [7]: > 15 µM | IC50 [8]: > 20 µM

CCCCCCCCCCCCCCCC[N+](C)(CCCCCCCCCCCCCCCC)CCNC(=O)CCC(=O)O[C@@H](C)[C@H]1CCC2C3CCC4=CC(=O)CC[C@]4(C)C3CC[C@@]21C (stereo partly drawn) [Compound 6f, N-(2-(4-((1S)-1-((10R,13S,17S)-10,13-dimethyl-3-oxo-2,3,6,7,8,9,10,11,12,13,14,15,16,17-tetradecahydro-1H-cyclopenta[a]phenanthren-17-yl)ethoxy)-4-oxobutanamido)ethyl)-N-hexadecyl-N-methylhexadecan-1-aminium chloride]
IC50 [1]: > 15 µM | IC50 [2]: > 15 µM | IC50 [3]: > 15 µM | IC50 [4]: > 15 µM | IC50 [5]: > 15 µM | IC50 [6]: > 20 µM | IC50 [7]: > 15 µM | IC50 [8]: > 20 µM

CCCCCCCCCCCCCCCCCC[N+](C)(CCCCCCCCCCCCCCCCCC)CCNC(=O)CCC(=O)O[C@@H](C)[C@H]1CCC2C3CCC4=CC(=O)CC[C@]4(C)C3CC[C@@]21C (stereo partly drawn) [Compound 6g, N-(2-(4-((1S)-1-((10R,13S,17S)-10,13-dimethyl-3-oxo-2,3,6,7,8,9,10,11,12,13,14,15,16,17-tetradecahydro-1H-cyclopenta[a]phenanthren-17-yl)ethoxy)-4-oxobutanamido)ethyl)-N-methyl-N-octadecyloctadecan-1-aminium chloride]
IC50 [1]: > 15 µM | IC50 [2]: > 15 µM | IC50 [3]: > 15 µM | IC50 [4]: > 15 µM | IC50 [5]: > 15 µM | IC50 [6]: > 20 µM | IC50 [7]: > 15 µM | IC50 [8]: > 20 µM
